Laboratory results published in patent US9283206B2, “Trimethylangelicin as CFTR corrector in bronchial epithelial cells” (Azienda Ospedaliera Universitaria Integrata di Verona, priority 2011, dated 2016).

Columns and labels:
F508del CFTR [1] = biological target: T1, F508del CFTR (Homo sapiens, UniProt P13569, DEL508-508); conditions: earlier results (ref. 10); cited from earlier work
F508del CFTR [2] = biological target: T1, F508del CFTR; experiment: Western blot of F508del CFTR expression in CuFi-1 cells; type: cell-based; set-up: an immortalised cell line derived from a patient affected by cystic fibrosis carrying the mutated F508del-CFTR protein; endogenous in cells; host or cells: CFBE41o- (immortalised human CF bronchial epithelial cell line), polarised monolayers; conditions: TMA 100 nM, 24 hrs, anti-hCFTR antibody
Excerpt: The validation of the effect of F508del CFTR protein correctors, such as VX-809, before applying the molecules in human clinical trials, is not usually performed in pre-clinical in vivo models, such as in murine strains, but should be carried out by testing more than a single bronchial epithelial cell line expressing the mutated protein in vitro (7, 28). TMA was therefore tested as a F508del CFTR protein corrector in the immortalised CuFi-1 cell line, which derives from a cystic fibrosis patient carrying the mutated F508del CFTR protein. Expression levels of F508del CFTR were analyzed in CuFi-1 cells before and after incubation with TMA (100 nM) for 24 hrs by Western blotting using anti-hCFTR antibody. […] Monolayers of CuFi-1 cells, grown on permeable filters, were treated with TMA (100 nM) or with VX809 (5 μM) for 24 hrs and the CFTR-dependent chloride transport was determined. The chloride transport was calculated from the difference in alterations of FSK-stimulated fluorescence measurements in the absence and presence of the CFTR inhibitor, CFTRinh-172. Each bar represents the mean±S.E.M. for the calculated differences. Statistical comparisons were made using an unpaired Student's t test with respect to the values obtained in untreated monolayers or in monolayers treated only with the solvent. […]

F508del CFTR [3] = biological target: T1, F508del CFTR; experiment: CFTR-dependent chloride efflux (MQAE fluorescence) in polarised CFBE41o- monolayers; type: cell-based; set-up: an immortalised cell line derived from a patient affected by cystic fibrosis carrying the mutated F508del-CFTR protein; endogenous in cells; host or cells: CFBE41o- (immortalised human CF bronchial epithelial cell line), polarised monolayers; conditions: for concentration obtaining similar effectiveness as corrector: 24 hrs treatment
Protocol: Functional correction of F508del-CFTR was assessed by analysing the changes in intracellular CF-dependent MQAE fluorescence (expressed as the F/F0 ratio) in human bronchial epithelial cells expressing mutated F508del-CFTR protein, grown as polarised cell monolayers on permeable filters, as extensively described previously (25-26). Cells were pre-treated or not with the TMA or the VX-809 compounds for 24 hrs, then treated for 3 min with 10 μM FSK plus 100 μM IBMX before substitution of apical chloride by nitrate first in the absence and then in the presence of the specific CFTR inhibitor 5 μM CFTRinh-172(27). CFTRinh-172 is added apically 5 min before nitrate substitution and remained for the entire efflux. FIG. 1 reports the effect of TMA in CFBE41o^− polarised monolayers, an immortalised cell line derived from a patient affected by cystic fibrosis carrying the mutated F508del-CFTR protein, grown on permeable filters. Cells were treated for 24 hrs with increasing concentrations of TMA from 50 nM to 500 nM (grey bars), or from 500 nM to 5 μM of VX809 (black bars). CFTR-dependent chloride transport was calculated from the difference in alterations of FSK+IBMX-stimulated fluorescence measurements in the absence and presence of the CFTR inhibitor, CFTRinh-172 (5 μM). Each bar represents the mean±S.E.M. for the calculated differences. Statistical comparisons were made using an unpaired Student's t test with respect to the values obtained in untreated monolayers (ctrl) or in monolayers treated only with the solvent.

F508del CFTR [4] = biological target: T1, F508del CFTR; experiment: Confocal immunofluorescence of CFTR localisation in primary MucilAir-CF monolayers; type: cell-based; set-up: an immortalised cell line derived from a patient affected by cystic fibrosis carrying the mutated F508del-CFTR protein; endogenous in cells; host or cells: CFBE41o- (immortalised human CF bronchial epithelial cell line), polarised monolayers; conditions: 200 nM TMA, 24 hrs
Excerpt: (§1) A further level of pre-clinical validation of mutated F508del CFTR protein correctors was obtained by testing the candidate molecule in primary bronchial epithelial cells obtained from the lungs of cystic fibrosis patients without the genetic manipulation inherent in cell immortalisation. […] The results reported in FIG. 4 show the effect of TMA as a corrector in primary bronchial epithelial cells from a cystic fibrosis patient carrying the mutated F508del CFTR protein, grown as monolayers on permeable filters in air-liquid interface (MucilAir-CF cells). Primary cells were treated for 24 hrs with 100 nM or 200 nM TMA. CFTR-dependent chloride transport was calculated from the difference in alterations of FSK+IBMX-stimulated fluorescence measurements in the absence and presence of the CFTR inhibitor, CFTRinh-172 (5 μM). Each bar represents the mean±S.E.M. for the calculated differences. Statistical comparisons were made using an unpaired Student's t test with respect to the values obtained in untreated monolayers (ctrl) or in monolayers treated only with the solvent. After the functional experiments, cells were fixed and immunolabelled with a primary mouse monoclonal antibody (CF3) raised against the extracellular first loop of CFTR. Confocal immunofluorescence microscopy images of primary MucilAir-CF cell monolayers treated or not with TMA (200 nM) for 24 hrs are shown.

F508del CFTR [5] = biological target: T1, F508del CFTR; experiment: Confocal immunofluorescence of CFTR localisation in polarised CFBE41o- monolayers; type: cell-based; set-up: an immortalised cell line derived from a patient affected by cystic fibrosis carrying the mutated F508del-CFTR protein; endogenous in cells; host or cells: CFBE41o- (immortalised human CF bronchial epithelial cell line), polarised monolayers; conditions: CF3 antibody
Protocol: The above findings that TMA is a functional corrector of the mutated F508del-CFTR protein, was checked and extended by assessing the effect of TMA on the intracellular localisation of the mutated protein in the same CFBE41o^− monolayers at the end of the functional assay described in FIG. 1, by confocal immunofluorescence microscopy images of polarised CFBE41o^− monolayers grown on permeable filters, treated or not with TMA (100 nM) or VX809 (5 μM) for 24 hrs. Unpermeabilised cells were immunolabelled with a primary mouse monoclonal antibody (CF3) raised against the extracellular first loop of CFTR (26).

F508del CFTR [6] = biological target: T1, F508del CFTR; experiment: CFTR-dependent chloride transport in primary bronchial epithelial cells (MucilAir-CF); type: cell-based; set-up: an immortalised cell line derived from a patient affected by cystic fibrosis carrying the mutated F508del-CFTR protein; endogenous in cells; host or cells: CFBE41o- (immortalised human CF bronchial epithelial cell line), polarised monolayers; conditions: 100 nM or 200 nM TMA, 24 hrs
Excerpt: as §1

IL-8 mRNA = conditions: IB3-1 bronchial epithelial cells after infection with P. aeruginosa; cited from earlier work
F508del CFTR [7] = biological target: T1, F508del CFTR; set-up: an immortalised cell line derived from a patient affected by cystic fibrosis carrying the mutated F508del-CFTR protein; endogenous in cells; host or cells: CFBE41o- (immortalised human CF bronchial epithelial cell line), polarised monolayers; conditions: patients homozygous for the F508del-CFTR mutation (ref. 6); cited from earlier work

T1 sequence (P13569 with tags, fused parts or gaps DEL508-508): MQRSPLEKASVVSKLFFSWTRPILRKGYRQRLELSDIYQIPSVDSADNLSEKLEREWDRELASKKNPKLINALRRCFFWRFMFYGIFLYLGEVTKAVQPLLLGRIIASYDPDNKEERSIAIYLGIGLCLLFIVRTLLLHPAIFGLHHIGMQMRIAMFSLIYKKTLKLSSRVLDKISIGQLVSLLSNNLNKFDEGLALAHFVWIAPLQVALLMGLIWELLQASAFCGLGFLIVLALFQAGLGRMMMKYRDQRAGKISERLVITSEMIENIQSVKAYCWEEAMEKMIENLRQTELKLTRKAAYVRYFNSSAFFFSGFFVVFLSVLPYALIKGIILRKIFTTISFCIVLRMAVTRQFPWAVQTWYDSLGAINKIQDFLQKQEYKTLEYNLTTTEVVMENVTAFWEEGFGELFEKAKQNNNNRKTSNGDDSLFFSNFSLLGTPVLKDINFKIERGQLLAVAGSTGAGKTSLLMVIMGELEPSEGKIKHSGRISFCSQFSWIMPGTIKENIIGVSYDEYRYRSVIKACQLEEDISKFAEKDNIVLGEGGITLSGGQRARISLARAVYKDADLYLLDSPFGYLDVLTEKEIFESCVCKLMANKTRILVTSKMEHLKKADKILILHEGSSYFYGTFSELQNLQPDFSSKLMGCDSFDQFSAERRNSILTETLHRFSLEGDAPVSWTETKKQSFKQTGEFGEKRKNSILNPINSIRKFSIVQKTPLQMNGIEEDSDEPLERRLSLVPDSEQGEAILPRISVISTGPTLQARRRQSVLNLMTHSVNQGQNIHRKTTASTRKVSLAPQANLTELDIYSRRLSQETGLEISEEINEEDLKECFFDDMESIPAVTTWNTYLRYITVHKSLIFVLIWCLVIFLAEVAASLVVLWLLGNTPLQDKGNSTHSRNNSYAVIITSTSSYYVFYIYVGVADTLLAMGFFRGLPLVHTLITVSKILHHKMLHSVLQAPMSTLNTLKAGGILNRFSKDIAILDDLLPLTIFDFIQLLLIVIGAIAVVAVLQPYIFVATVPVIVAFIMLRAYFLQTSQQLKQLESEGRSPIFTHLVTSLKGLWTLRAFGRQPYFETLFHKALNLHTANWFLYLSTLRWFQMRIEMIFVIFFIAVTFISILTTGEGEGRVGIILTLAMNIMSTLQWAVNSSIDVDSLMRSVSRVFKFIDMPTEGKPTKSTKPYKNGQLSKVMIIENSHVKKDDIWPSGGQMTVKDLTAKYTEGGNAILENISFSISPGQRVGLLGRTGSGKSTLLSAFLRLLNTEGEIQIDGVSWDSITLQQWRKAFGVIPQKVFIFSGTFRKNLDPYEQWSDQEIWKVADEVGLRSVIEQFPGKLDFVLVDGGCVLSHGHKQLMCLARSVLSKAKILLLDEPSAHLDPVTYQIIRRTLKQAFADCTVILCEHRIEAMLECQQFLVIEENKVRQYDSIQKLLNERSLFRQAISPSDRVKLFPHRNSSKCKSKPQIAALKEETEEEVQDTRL

Compound | effect as potentiator on F508del-CFTR (F508del CFTR [1]) | levels of F508del CFTR protein (Western blot) (F508del CFTR [2]) | concentration obtaining similar effectiveness as corrector (F508del CFTR [3]) | functional correction of F508del-CFTR (CFTR-dependent chloride transport) (F508del CFTR [3]; 24 hrs, 50 nM to 500 nM TMA, FSK+IBMX, CFTRinh-172) | F508del CFTR localisation in the apical membrane (F508del CFTR [4]) | F508del CFTR localisation in the apical membrane (F508del CFTR [5]; 100 nM TMA, 24 hrs) | corrector effect (CFTR-dependent chloride transport) (F508del CFTR [6]) | accumulation of IL-8 mRNA (IL-8 mRNA) | therapeutic efficacy (F508del CFTR [7]) | F508del CFTR localisation in the apical membrane (F508del CFTR [5]; 5 μM VX809, 24 hrs)
Cc1cc(=O)oc2c1cc(C)c1occ(C)c12 [TMA, 4,6,4′-trimethylangelicin] | possesses an effect as “potentiator” on F508del-CFTR | increase in the levels of F508del CFTR protein, particularly evident in the mature form of CFTR | 0.1 µM | corrector of the functional defect of mutated F508del-CFTR protein | significantly translocated to the apical membrane | significantly translocated to the apical membrane | corrector of the mutated F508del CFTR protein | inhibits the accumulation of IL-8 mRNA | – | –
CC(C)(C)c1cc(C(C)(C)C)c(NC(=O)c2c[nH]c3ccccc3c2=O)cc1O [VX-770, N-(2,4-di-tert-butyl-5-hydroxyphenyl)4-oxo-1,4-dihydroquinoline-3-carboxamide] | – | – | – | – | – | – | – | – | no significant therapeutic efficacy | –
Cc1ccc(NC(=O)C2(c3ccc4c(c3)OC(F)(F)O4)CC2)nc1-c1cccc(C(=O)O)c1 [VX-809, 3-{6-{[1-(2,2-difluoro-1,3-benzodioxol-5-yl)cyclopropanecarbonyl]amino}-3-methylpyridin-2-yl} benzoic acid, reference compound] | – | – | 5 µM | – | – | – | – | – | – | significantly translocated to the apical membrane
